# Source: patent US20240262803A1, “COMPOUNDS, COMPOSITIONS AND METHODS OF TREATING DISORDERS” (Chungdu Anticancer Bioscience Ltd, priority 2021, published 2024)
# Entries after “also recorded” stand apart in the source; their conditions may differ.
# Legend:
# [1] = tested on: liver cancer cell line T2 HCC; test: Minimal effective concentration that elicits polyploidy, T2 HCC; assay type: cell-based; conditions: Mus musculus, read-out: MECP: Minimal effective concentration that elicits polyploidy
# [2] = tested on: lung cancer cell line NCI-H460; test: MTT assay of cellular proliferation, NCI-H460; assay type: cell-based; conditions: Homo sapiens, read-out: EC50: Concentration that inhibits 50% of proliferation
# Description: (§1) Six lung cancer cell lines (NCI-H23, NCI-H460, NCI-H596, NCI-H2170, Calu-6 and A549), two colon cancer cell lines (HCT116 and SW460), one breast cancer cell line MDA-MB-231, one gastric cancer cell line NCI-N87, one prostate cancer cell line DU145, one cervical cancer cell line Hela, and one glioblastoma cell line T98G were obtained from ATCC. The T2 HCC cell line was derived from a mouse liver cancer model initiated by a transgene of MYC (Reference). All cell lines were cultured in DMEM (Gibco, Cleveland, TN, USA) supplemented with 5% fetal bovine serum (Gibco), penicillin (100 U/mL)-streptomycin (100 μg/mL) (Gibco, Cat. No. 15140-122), 2 mM L-glutamine (Gibco, 200 mM solution, Cat. No. 25030081), and 1 mM sodium pyruvate (Gibco, 100 mM solution, Cat. No. 11360070) at 37° C. in a humidified incubator that was maintained at 5% CO2.
# (§2) The MTT assay measures cellular metabolic activity as a proxy for cell viability and involves the conversion of the water-soluble yellow dye MTT [3-(4,5-dimethylthiazol-2-yl)-2,5-diphenyltetrazolium bromide] into an insoluble purple formazan by the action of mitochondrial reductase. Formazan is then solubilized and its concentration is determined by measuring the optical density (OD) value at a wavelength of 570 nm. The value is in proportional to the number of live cells with excellent linearity up to ˜10^6 cells per well. The MTT assay was used to determine the EC50 value, the concentration of a compound that leads to 50% inhibition of cellular proliferation. Briefly, cells were split when growing to the mid-Log phase. Cells in 100 μL of culture medium were seeded into each well of 96-well microplates and cultivated for 15˜24 hours to reach a confluence of 20˜30% and were then exposed to drugs at concentrations ranging from 1 nM to 10 μM. At the endpoint, 20 μL of a MTT stock solution in DMSO (5 mg/mL) was added to each well that contains […] of DMEM. The microplates were left in the cell culture incubator for 3˜4 h before subjected to solubilization and determination of formazan at A570 in a microplate reader (BioTek ELX808iu). […] Therefore, these compounds might hold a broad utility in the treatment of a large variety of human malignancies.
# [3] = tested on: prostate cancer cell line DU145; test: MTT assay of cellular proliferation, DU145; assay type: cell-based; conditions: Homo sapiens, DU-145, read-out: EC50: Concentration that inhibits 50% of proliferation
# Description: as §1, §2
# [4] = tested on: colon cancer cell line HCT116; test: Minimal effective concentration that elicits polyploidy, HCT116; assay type: cell-based; conditions: Homo sapiens, HCT-116, read-out: MECP: Minimal effective concentration that elicits polyploidy
# [5] = tested on: cervical cancer cell line Hela; test: MTT assay of cellular proliferation, Hela; assay type: cell-based; conditions: Homo sapiens, read-out: EC50: Concentration that inhibits 50% of proliferation
# Outline: (§3)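 EC50 values come from optical density at 570 nm of solubilized MTT formazan, added for 3˜4 h after compound exposure. Cells in DMEM with 5% FBS were treated at 1 nM to 10 μM once 20˜30% confluent.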
# RPEMYC^H2B-GFP cells = test: Mechanism-informed phenotypic screening assay (mitotic arrest, polyploidy; GE IN-Cell Analyzer 2000); assay type: cell-based; conditions: 20 nM to 20 μM, 24, 48 or 72 hours, read-out: Min. Effective conc. for polyploidy (≥5%)
# Outline: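 RPEMYC^H2B-GFP cells expressing Histone 2B-EGFP were treated with compounds at 20 nM to 20 μM. Mitotic arrest and DNA content were imaged at 24, 48 or 72 h. Minimal effective concentrations eliciting polyploidy are given as letter bins.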
# [6] = tested on: lung cancer cell line A549; test: MTT assay of cellular proliferation, A549; assay type: cell-based; conditions: Homo sapiens, read-out: EC50: Concentration that inhibits 50% of proliferation
# Outline: as §3
# [7] = tested on: cervical cancer cell line Hela; test: Soft agar colony formation assay, Hela; assay type: cell-based, human; conditions: 3D culture, FIG. 2
# Description: as §1
# Measuring the ability of cells to grow in soft agar has been popularly believed as the gold standard assay for cellular transformation in vitro. In the Soft Agar Assay, cells grow from single cells to cell colonies in a semi-solid agar solution that keeps them away from the solid surface and allows growth in an anchorage-independent way.
# The anchorage-independent growth of cells is one of the hallmarks of cancer cells. […] Cell culture medium was changed once every two days until colonies were ready to photograph. […]
# [8] = tested on: gastric cancer cell line NCI-N87; test: Minimal effective concentration that elicits polyploidy, NCI-N87; assay type: cell-based; conditions: Homo sapiens, read-out: MECP: Minimal effective concentration that elicits polyploidy
# SW480 = test: Minimal effective concentration that elicits polyploidy, SW480; assay type: cell-based; conditions: Homo sapiens, read-out: MECP: Minimal effective concentration that elicits polyploidy
# [9] = tested on: colon cancer cell line SW460; test: MTT assay of cellular proliferation, SW460; assay type: cell-based; conditions: Homo sapiens, SW480; read-out: EC50: Concentration that inhibits 50% of proliferation
# Outline: as §3
Compound,minimal effective concentration [1] [µM],EC50 [2] [nM],EC50 [3] [nM],minimal effective concentration [4] [µM],EC50 [5] [nM],minimal effective concentration (RPEMYC^H2B-GFP cells) [µM],EC50 [6] [nM],anchorage-independent growth in soft agar [7],minimal effective concentration [8] [µM],minimal effective concentration (SW480) [µM],EC50 [9] [nM]
"COC(=O)c1cc(Oc2ncccc2-c2ccncc2)cc(C(=O)OC)c1 [Compound 1, Dimethyl 5-([3,4′-bipyridin]-2-yloxy)isophthalate]",0.001 to 1,10000 to 30000,1 to 1000,0.001 to 1,1 to 1000,1,10000 to 30000,Suppress the Anchorage-independent Growth; also recorded: effectively suppressed the anchorage-independent growth,0.001 to 1,,
"COC(=O)c1cc(OC)cc(Oc2ncccc2-c2ccncc2)c1 [Compound 2, Methyl 3-([3,4′-bipyridin]-2-yloxy)-5-methoxybenzoate]",0.001 to 1,10000 to 30000,1 to 1000,0.001 to 1,1 to 1000,1,10000 to 30000,,0.001 to 1,0.001 to 1,1 to 1000
"COC(=O)c1cc(Oc2ncccc2-c2ccnc(N)n2)cc(C(=O)OC)c1 [Compound 21, dimethyl 5-((3-(2-aminopyrimidin-4-yl)pyridin-2-yl)oxy)isophthalate]",0.001 to 1,10000 to 30000,1 to 1000,0.001 to 1,1 to 1000,1,,Suppress the Anchorage-independent Growth; also recorded: effectively suppressed the anchorage-independent growth,0.001 to 1,,
"COC(=O)c1cc(OC)cc(Oc2ncccc2-c2ccnc(N)n2)c1 [Compound 23, Methyl 3-((3-(2-aminopyrimidin-4-yl)pyridin-2-yl)oxy)-5-methoxybenzoate]",0.001 to 1,10000 to 30000,1 to 1000,0.001 to 1,1 to 1000,1,10000 to 30000,,0.001 to 1,0.001 to 1,1 to 1000
